Source: US20020132845A1, “Compositions and methods for the prevention and treatment of tissue ischemia” (priority 2000, published 2002)

Tests used:
[1] = test system: myocardial infarction by left coronary artery occlusion; experiment: Model of myocardial infarction: left coronary ligation (Example 5); assay type: in vivo, rat; details: dose of 0.67 mg/kg
Experimental: Male Sprague-Dawley weighing 250-320 g are allowed free access to water and commercial rodent diet under standard laboratory conditions. Room temperature is maintained at 20-23° C. and room illumination is on a 12/12-hour light/dark cycle. Animals are acclimatized to the laboratory environment 5 to 7 days prior to the study and are fasted overnight prior to surgery.
Rats are anaesthetized with Urethane (1.2-1.5 gm/kg). Core body temperature is maintained at 37° C. by using a heating blanket. The surgical area is shaved, and a ventral midline incision is made to expose the trachea and jugular area. A catheter (PE50) is placed in the jugular for administration of compound and maintenance anesthesia. The trachea is incised and a 14-16-gauge modified intravenous catheter is inserted and tied in place as an endotracheal tube. The animal is placed in right lateral recumbency and initially placed on a Harvard ventilator with a tidal volume of 5-10 ml/kg. 100% O2 is delivered to the animals by the ventilator. ECG electrodes are placed to record a standard Lead II ECG. The surgical site is cleaned with alcohol swab, and a skin incision is made over rib cage over the 4th-5th intercostal space. […] The ECG is monitored for S-T changes indicative of ischemia. […] The ECG is monitored for the first 10 minutes of reperfusion. […]

[2] = test system: primary neonate myocytes (cardiomyocytes); experiment: Isolated heart cell (myocyte) preparation model of myocardial cell ischemia (Example 4); assay type: cell-based, rat; details: 37-111 micromolar
From the text: Two-day old rat pups are removed from their mothers and placed in a sterile container. Pups are dipped quickly into 70% alcohol, then decapitated and the body is placed in an empty sterile tissue culture dish. An incision is made starting at the neck and progressing towards the belly, cutting through the sternum. The heart is removed and placed in a tissue culture dishes containing 1×HDS. The atria are trimmed, and the remaining ventricles are placed into a separate tissue culture dish containing 1×HDS, where they are sectioned into 3-4 pieces each. Ventricles are then transferred to a sterile 250 ml glass flask and the 1×HDS is removed. Twenty milliliters of pre-warmed collagenase solution are added to the ventricles, followed by incubation at 37° C. with shaking. After 30 minutes, the collagenase solution is removed and replaced with 20 ml fresh pre-warmed collagenase. Incubation is continued for an additional 30 minutes. At the end of the incubation, any tissue chunks are allowed to settle prior to removing the collagenase (containing the isolated cardiomyocytes) from the disrupted tissue pieces. The isolated myocytes are added to a 50 ml Falcon tube containing 2 ml Fetal Bovine Serum (FBS). […]
A small aliquot of the cell suspension is counted in a hemocytometer. […]

## bromo-quercetin
[1]
  infarct size: reduce infarct size
[2]
  preventing or reducing myocardial damage: effective
